One test has as its system rabbits. As to conditions: cited from earlier work.
A further test deals with Swiss albino mice. The test can be described thus: Gout model: MSU crystal-induced neutrophil recruitment (peritonitis). The class given is in vivo. As for the experimental part:
Male outbread Swiss albino mice (20–22 g body weight) were purchased from Banton and Kingsman (T.O. strain; Hull, Humberside) and maintained on a standard chow pellet diet with tap water ad libitum and a 12:00 h light dark cycle. All animals were housed for 1 week prior to experimentation to allow body weight to reach 23–30 g.
1.11b-dihydrobenzopyrano[4,3,2-de]isoquinolin-1-one was dissolved in 100% DMSO at room temperature at a concentration of 45 mg in 2 ml. The compound was then injected into the peritoneal cavity, so as each mouse received a single dose corresponding to 45 mg/2 ml/kg (e.g. 60 μl for a mouse of 30 g). Control mice received DMSO at 2 ml/kg i.p. A third group of mice which were left untreated were added to control for potential effects of the vehicle. The study involved therefore, the following three groups: group A, untreated mice, n=6, group B, DMSO-treated mice, n=8, and group C, mice treated with 1.1 lb-dihydrobenzopyrano[4,3,2-de]isoquinolin-1-one, n=8
MSU crystal-induced neutrophil recruitment was tested as follows. In all cases, mice were treated 1 h after the treatment noted above, with MSU crystals. A homogenous suspension of MSU crystals was obtained by a 30 min rotation. Peritonitis was induced by injection of 3 mg MSU crystals in 0.5 ml PBS (0.1 M, pH 7.4), and the recruitment of neutrophils into the cavity evaluated at the 6 h time point (Gerting et al., 1997, J. Pharmacol. Exp. Ther. 233: 123–130). Animals were then euthanised by CO2 exposure and the peritoneal cavity washed with 3 ml of PBS supplemented with 3 mM EDTA and 25 U/ml heparin.
An aliquot (100 μl) of the lavage fluid was then diluted 1:10 in Turk's solution (0.01% crystal violet in 3% acetic acid). The samples were then vortexed and 10 μl of the stained cell solution were placed in a Neubauer haematocymometer and neutrophils numbers counted using a light microscope (Olympus B061). […]
Data are shown for single mice, and also shown as mean±S.E. of (n) mice per group. Statistical differences were determined by ANOVA, plus Bonferroni test. […]

For the next test, the system named is male Long-Evans rats. The test can be described thus: Focal cerebral ischemia (right distal MCA cauterization with temporary bilateral CCA occlusion). The class given is in vivo. The conditions noted are these: 24 h, mean±SD. The method, then: Focal cerebral ischemia is produced by cauterization of the right distal MCA (middle cerebral artery) with bilateral temporary common carotid artery occlusion in male Long-Evans rats for 90 minutes. All procedures performed on the animals are approved by the University Institutional Animal Care and Use Committee of the University of Pennsylvania. A total of 42 rats (weights: 230–340 g) obtained from Charles River were used in this study. The animals fasted overnight with free access to water prior to the surgical procedure.
Two hours prior to MCA occlusion, varying amounts (control, n=14; 5 mg/kg, n=7; 10 mg/kg, n=7; 20 mg/kg, n=7; and 40 mg/kg, n=7) of the compound, 3,4-dihydro-5-[4-(1-piperidinyl)-butoxy]-1(2H)-isoquinolinone (“DPQ”) were dissolved in dimethyl sulfoxide (DMSO) using a sonicator. A volume of 1.28 ml/kg of the resulting solution was injected intraperitoneally into […].
The rats were then anesthetized with halothane (4% for induction and 0.8%–1.2% for the surgical procedure) in a mixture of 70% nitrous oxide and 30% oxygen. The body temperature was monitored by a rectal probe and maintained at 37.5±0.5° C. with a heating blanket regulated by a homeothermic blanket control unit (Harvard Apparatus Limited, Kent, U.K.). A catheter (PE-50) was placed into the tail artery, and arterial pressure was continuously monitored and recorded on a Grass polygraph recorder (Model 7D, Grass Instruments, Quincy, Mass.). Samples for blood gas analysis (arterial pH, PaO2 and PaCO2) were also talcen from the tail artery catheter and measure with a blood gas analyzer (ABL 30, Radiometer, Copenhagen, Denmark). Arterial blood samples were obtained 30 minutes after MCA occlusion.
The head of the animal was positioned in a stereotaxic frame, and a right parietal incision between the right lateral canthus and the external auditory meatus was made. Using a dental drill constantly cooled with saline, a 3 mm burr hole was prepared over the cortex supplied by the right MCA, 4 mm lateral to the sagittal suture and 5 mm caudal to the coronal suture. The dura mater and a thin inner bone layer were kept, care being taken to position the probe over a tissue area devoid of large blood vessels. The flow probe (tip diameter of 1 mm fiber separation of 0.23 mm) was lowered to the bottom of the cranial burr hole using a micromanipulator. The probe was held stationary by a probe holder secured to the skull with dental cement. The microvascular blood flow in the right parietal cortex was continuously monitored with a laser Doppler flowmeter (FloLab, Moor, Devon, U.K., and Periflux 4001, Perimed, Stockholm, Sweden). […]

For a further test, the system named is PARP. The conditions noted are these: read-out: IC50 for inhibiting PARP; reported by Suto et al.; cited from earlier work.
Test [1] deals with T1, purified recombinant human PARP (Homo sapiens, UniProt P09874).
T1 construct: purchased Trevigan (Gaithersburg, Md.)
As to the kind of experiment: PARP enzyme assay with [3H]NAD, scintillation counting. The class given is biochemical. The method, then: The reaction is initiated by incubating the mixture at 25° C. After 15 minutes of incubation, the reaction is terminated by adding 500 microliters of ice cold 20% (w/v) trichloroacetic acid. The precipitate formed is transferred onto a glass fiber filter (Packard Unifilter-GF/B) and washed three times with ethanol. After the filter is dried, the radioactivity is determined by scintillation counting.
Using the PARP assay described above, approximate IC50 (μM) values were obtained as shown in the following Table III, which also include specific embodiments of the compounds of the present invention: […]

Setting [2] is: Table III, read-out: approximate IC50.

Several values for one entry are separate records, joined by “and”; a condition that tells them apart may be missing. Equal values may be shown once. Read-outs that look alike come from different tables or passages of the source.

T1 sequence (P09874 whole entry): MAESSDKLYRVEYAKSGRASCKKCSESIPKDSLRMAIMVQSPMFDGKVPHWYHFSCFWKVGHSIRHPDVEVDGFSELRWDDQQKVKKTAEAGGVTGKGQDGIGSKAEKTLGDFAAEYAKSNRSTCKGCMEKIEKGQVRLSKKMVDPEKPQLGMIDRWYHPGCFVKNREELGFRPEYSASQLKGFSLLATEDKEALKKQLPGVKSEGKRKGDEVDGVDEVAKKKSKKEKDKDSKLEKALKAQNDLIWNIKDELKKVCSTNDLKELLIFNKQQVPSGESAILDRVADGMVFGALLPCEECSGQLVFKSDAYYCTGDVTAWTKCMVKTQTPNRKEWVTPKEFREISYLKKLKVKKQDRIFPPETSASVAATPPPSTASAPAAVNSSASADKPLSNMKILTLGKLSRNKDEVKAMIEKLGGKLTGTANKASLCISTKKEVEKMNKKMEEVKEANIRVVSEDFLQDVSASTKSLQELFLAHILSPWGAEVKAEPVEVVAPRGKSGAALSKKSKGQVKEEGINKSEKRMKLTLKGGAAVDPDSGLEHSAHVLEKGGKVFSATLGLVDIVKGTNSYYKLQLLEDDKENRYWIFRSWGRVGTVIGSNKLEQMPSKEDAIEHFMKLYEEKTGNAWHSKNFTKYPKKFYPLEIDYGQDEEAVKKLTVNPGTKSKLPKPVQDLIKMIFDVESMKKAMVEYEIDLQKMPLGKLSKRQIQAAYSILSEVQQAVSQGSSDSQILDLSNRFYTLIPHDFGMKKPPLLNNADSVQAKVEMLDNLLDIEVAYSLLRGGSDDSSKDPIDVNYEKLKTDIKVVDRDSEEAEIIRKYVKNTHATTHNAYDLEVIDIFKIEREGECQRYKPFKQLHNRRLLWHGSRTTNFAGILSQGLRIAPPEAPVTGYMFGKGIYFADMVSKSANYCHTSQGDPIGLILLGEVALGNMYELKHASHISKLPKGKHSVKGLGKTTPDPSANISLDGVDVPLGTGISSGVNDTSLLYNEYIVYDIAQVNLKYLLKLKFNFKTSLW

Regarding `Oc1cccc2c(O)nccc12` [1,5-dihydroxyisoquinoline], the “reduction in infarct size” value in the test with rabbits (single injection 1 mg/kg) was 38–42%.
Regarding `O=C1N=Cc2cccc3c2C1c1ccccc1O3` (stereo not shown) [1,11b-dihydrobenzopyrano[4,3,2-de]isoquinolin-1-one], in the test on Swiss albino mice (45 mg/kg i.p., MSU crystals, 6 h), the “inhibition of cell influx vs. the vehicle group” value is listed as 55%. Moreover, the “Neutrophil Numbers (single mice)” value with Swiss albino mice (group C, 45 mg/kg i.p. 1 h prior to 3 mg MSU crystals, peritoneal lavage at 6 h, one value per mouse, 45 mg/kg) is 2.4 10^6 per mouse (2×) and 3.0 10^6 per mouse (2×) and 2.7 10^6 per mouse and 2.1 10^6 per mouse (2×) and 5.1 10^6 per mouse. The “Neutrophils (10^6 per mouse), mean ± S.E.” value with Swiss albino mice (group C, 45 mg/kg i.p., MSU crystals (3 mg), 6 h, n=8, P<0.05 vs. vehicle group B (6.30 ± 0.33)) is 2.85 ± 0.34 (8)* 10^6 per mouse.
Regarding `NC(=O)c1cccc(N)c1` [3-aminobenzamide], the “reduction in infarct size in the heart” value with rabbits (single injection 10 mg/kg, one minute before occlusion or one minute before reperfusion) is reported as 32–42%.
Take `O=C1NCCc2c(OCCCCN3CCCCC3)cccc21` [DPQ, 3,4-dihydro-5-[4-(1-piperidinyl)-butoxy]-1(2H)-isoquinolinone]: the “damaged volume (infarct volume)” value with male Long-Evans rats (5 mg/kg i.p. 2 h before and 2 h after MCA occlusion, control 165.2±34.0, p<0.001) is listed as 106.7±23.2 mm^3; with male Long-Evans rats (10 mg/kg i.p. 2 h before and 2 h after MCA occlusion, control 165.2±34.0, p<0.001), 76.4±16.3 mm^3; in the test with male Long-Evans rats (20 mg/kg i.p. 2 h before and 2 h after MCA occlusion, control 165.2±34.0, p<0.01), 110.2±42.0 mm^3; with male Long-Evans rats (40 mg/kg i.p. 2 h before and 2 h after MCA occlusion, no significant difference from control 165.2±34.0), 135.6±44.8 mm^3. For the same compound, the concentration for half-maximal inhibition (IC50) in the test with PARP is 0.04 µM.
Turning to `O=C(CN1CCN(c2ccncc2)CC1)Nc1ccc2[nH]c(=O)c3cccc4c3c2c1C4` [Example 56], the IC50 is 0.204 µM in test [1] (setting [2]) and 0.204 µM in test [1] (examples table, read-out: IC50).
As for `CN(C)CCN(C)CC(=O)Nc1ccc2[nH]c(=O)c3cccc4c3c2c1C4` [Example 57], the IC50 is 0.055 µM in test [1] (setting [2]) and 0.055 µM in test [1] (examples table, read-out: IC50).
In the case of `O=C(CN1CCN(CCN2CCCC2)CC1)Nc1ccc2[nH]c(=O)c3cccc4c3c2c1C4` [Example 58], the half-inhibitory concentration (IC50) in test [1] (setting [2]) was 0.39 µM; in test [1] (examples table, read-out: IC50), 0.39 µM.

A word on the IC50: it is the point on the concentration scale where inhibition reaches its midpoint.
